Data taken from paper PMC9019572, “Design, Synthesis, and Biological Evaluation of [1,2,4]triazolo[4,3-a] Pyrazine Derivatives as Novel Dual c-Met/VEGFR-2 Inhibitors” (Frontiers in Chemistry, 2022).

Experiments:
[1] = target: VEGFR-2 (Homo sapiens, UniProt P35968); assay: VEGFR-2 kinase inhibition assay; type: biochemical
Method: (§1) The kinase assay was performed by Pratzer Biotechnology Co. Ltd. (Changsha, China).

[2] = system: A549 cells; assay: Annexin V/PI apoptosis assay by flow cytometry; type: cell-based, human; details: 72 h; for Q1-LR: control 1.68%; for Q1-UL: control 1.87%; for Q1-UR: control 2.05%; for total apoptosis rate: control 3.73%; for Q1-LL: control 94.40%
Method: The cell apoptosis assay was performed by Pratzer Biotechnology Co. Ltd. (Changsha, China). After A549 cells were resuscitated, the cells were cultured in F-12 K medium containing 10% FBS and 1% pen/strep in incubator with 5% CO2 at 37°C. A549 cells, being in the logarithmic growth phase, were digested with […] and laid in six-well plates with a density of 2 × 10^5/well, and the cells were collected centrifugally after 72 h of treatment with each compound. The cells were washed twice with PBS, which was precooled to 4°C. Then the cells were suspended with 500 μl of buffer, and the concentration was adjusted to 10^6/ml. A 100-μl suspension was placed in a 5-ml flow tube, adding 5 µl of Annexin V-APC, adding 5 μl of propidiμm iodide, and the mixture was mixed and incubated at room temperature without light for 15 min detecting cell apoptosis by flow cytometry (FACS).
The assay of annexin V/PI staining was performed to deeper research the mechanism of apoptosis induced by compound 17l in A549 cells.

[3] = system: p-VEGFR-2 (Tyr1059); assay: Western blot, p-VEGFR-2 in A549 cells; type: cell-based, human; details: A549, 24 h, different concentrations
Description: (§2) Western blot was utilized to further analyze the effect of compound 17l on the downstream signal protein of c-Met and VEGFR-2. The detailed operations refer to the previous method of our research group ([Zhao et al., 2020]). […] The extracted protein was transferred to a PVDF membrane in ice bath conditions after 10% SDS polyacrylamide gel electrophoresis separating the protein by size. The PVDF membrane was rinsed with phosphate-buffered solution (PBST), shaken in a Petri dish three times for 3–5 min every time, and incubated with different target proteins (p-c-Met, p-VEGFR-2, p-ERK 1/2, p-AKT, and GADPH). Finally, the film was exposed and developed in a darkroom. Image Lab software (Molecular Dynamics, Sunnyvale, CA, USA) was utilized to analyze the shadow density of each band, which was then expressed as a percentage of GDPDH band density ([Zhao et al., 2020]).
(§3) We further verified the effect of compound 17l on c-Met and downstream signaling pathways. We treated A549 cell line with different doses of compound 17l for 24 h to measure its phosphorylation inhibition in different pathways.

[4] = system: PC-9 cells; assay: Antiproliferative activity, PC-9; type: cell-based; details: Homo sapiens
Method: (§4) The cell lines used in the experiment were available from the Cell Culture Collection of Chinese Academy of Sciences (Shanghai Institutes for Biological Sciences, Chinese Academy of Sciences). Referring to the previous experimental methods of our research, all cells were cultured in suitable medium such as DMEM or RPMI-1640 containing 10% fetal bovine serum at 37°C in 5% CO2 and propagated for 24 h. Then the compounds with different gradient concentrations were added into the medium and incubated for 72 h, and then MTT (thiazolyl blue tetrazolium bromide) with a concentration of 5 µg/ml was added to every well for 4 h at 37°C. The formazan crystals were dissolved in 100 µl of DMSO in each well. The absorbancy at 492 nm (for absorbance of MTT formazan) and 630 nm (for the reference wavelength) was measured with an ELISA reader. All compounds were tested three times in each of the cell lines. The results, expressed as inhibition rates or IC50 (half-maximal inhibitory concentration), were the averages of two determinations and calculated by using the Bacus Laboratories Incorporated Slide Scanner (Bliss) software.

[5] = system: p-c-Met (Tyr1003); assay: Western blot, p-c-Met in A549 cells; type: cell-based, human; details: A549, 24 h, different concentrations
Description: as §2, §3

[6] = system: A549 cells; assay: MTT antiproliferative assay, A549; type: cell-based; details: Homo sapiens, 72 h;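 further: formazan read-out dissolved in DMSO, each compound assayed three times, IC50 computed with Bliss software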
Method: The cell lines used in the experiment were available from the Cell Culture Collection of Chinese Academy of Sciences (Shanghai Institutes for Biological Sciences, Chinese Academy of Sciences). […] The formazan crystals were dissolved in 100 µl of DMSO in each well. […] All compounds were tested three times in each of the cell lines. The results, expressed as inhibition rates or IC50 (half-maximal inhibitory concentration), were the averages of two determinations and calculated by using the Bacus Laboratories Incorporated Slide Scanner (Bliss) software.

[7] = system: A549 cells; assay: Cell cycle assay by flow cytometry; type: cell-based, human; details: A549, 1.0 μM, 72 h; control 61.14%
Method: A549 cells were placed in 12-well plates at a density of 10^6/well with F-12 K containing 10% FBS as the medium, and the experiment was conducted on alternate days. Cells (1–5×10^6) were collected, centrifuged at 1,500 rpm for 5 min to remove the supernatant, washed with PBS twice, and gently mixed with 200 μl of cell cycle rapid detection reagent to make a single-cell suspension, which was detected by flow cytometry within 1 h.
We treated A549 cells with 1.0 μM compound 17l for 72 h and determined its effect on cell cycle by flow cytometry to further reveal the growth inhibition mechanism of the target compound on tumor cells. […] At the same time, the content of cell block rate decreased in S phase, but the change in G2/M phase was not obvious.

[8] = system: ERK1/2 and AKT; assay: Western blot, downstream ERK1/2 and AKT phosphorylation in A549 cells; type: cell-based, human; details: A549, 24 h, 1.00 μM
Description: as §2, §3

[9] = target: EGFR^WT (Homo sapiens, UniProt P00533); assay: EGFR^wt kinase inhibition assay; type: biochemical
Chain of EGFR^WT (P00533 25-1210): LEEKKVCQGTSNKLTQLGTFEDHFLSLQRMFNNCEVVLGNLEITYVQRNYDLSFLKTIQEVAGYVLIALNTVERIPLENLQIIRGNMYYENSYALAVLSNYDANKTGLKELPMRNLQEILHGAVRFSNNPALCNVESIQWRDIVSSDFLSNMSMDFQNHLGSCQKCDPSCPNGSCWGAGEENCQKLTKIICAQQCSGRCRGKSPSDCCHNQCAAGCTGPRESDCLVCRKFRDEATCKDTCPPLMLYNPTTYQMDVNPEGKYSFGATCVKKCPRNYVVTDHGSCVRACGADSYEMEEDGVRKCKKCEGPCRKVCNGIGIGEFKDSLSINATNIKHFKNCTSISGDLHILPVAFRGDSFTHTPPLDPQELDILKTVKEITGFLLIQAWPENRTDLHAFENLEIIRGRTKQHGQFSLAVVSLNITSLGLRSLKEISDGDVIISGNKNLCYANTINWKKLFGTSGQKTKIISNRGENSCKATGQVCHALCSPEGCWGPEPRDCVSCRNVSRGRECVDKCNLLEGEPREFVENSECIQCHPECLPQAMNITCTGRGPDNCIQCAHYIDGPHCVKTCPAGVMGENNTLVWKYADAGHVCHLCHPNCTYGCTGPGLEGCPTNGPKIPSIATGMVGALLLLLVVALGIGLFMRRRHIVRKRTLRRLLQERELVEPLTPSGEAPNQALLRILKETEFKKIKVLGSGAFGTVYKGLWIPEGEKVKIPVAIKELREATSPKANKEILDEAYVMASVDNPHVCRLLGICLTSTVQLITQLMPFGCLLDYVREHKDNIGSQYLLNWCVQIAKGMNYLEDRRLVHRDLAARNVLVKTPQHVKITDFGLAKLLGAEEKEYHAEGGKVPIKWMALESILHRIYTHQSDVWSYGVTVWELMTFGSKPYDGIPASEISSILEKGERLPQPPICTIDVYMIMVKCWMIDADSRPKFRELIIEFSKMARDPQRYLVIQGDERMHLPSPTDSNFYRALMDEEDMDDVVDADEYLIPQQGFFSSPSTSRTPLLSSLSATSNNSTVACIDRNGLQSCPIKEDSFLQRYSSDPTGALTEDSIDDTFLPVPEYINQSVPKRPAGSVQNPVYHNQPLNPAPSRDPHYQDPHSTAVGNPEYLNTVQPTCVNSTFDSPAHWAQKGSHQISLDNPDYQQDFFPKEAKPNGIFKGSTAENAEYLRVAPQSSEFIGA
Method: as §1

[10] = system: sheep red blood cells; assay: Hemolytic test; details: 16–256 μg/ml, at the highest concentration within the study range
Method: The hemolytic toxicity of 17l was studied with 1% Triton and 0.9% normal saline, and the former was a positive control, and the latter was a negative control. […] (1%), 0.9% normal saline, and compound 17l of different concentrations prepared in 0.9% normal saline reacted with the prepared sheep red blood cells, respectively. Photos were taken, and the absorbance value was measured by ultraviolet spectrophotometer at a wavelength of 540 nm, and hemolysis ratio (hemolysis %) was calculated according to the following formula ([Guo et al., 2017]). The experiment was repeated twice in parallel. Hemolysis %=Abs(experimental group)−Abs(negative control)/Abs(positive control)−Abs(negative control)
The best compound 17l with antiproliferative activity and kinase inhibition activity was selected to detect its hemolytic toxicity at a gradient concentration of 16–256 μg/ml, and the safety of intravenous administration was preliminarily investigated. […] Its hemolytic toxicity meets the requirements of intravenous administration, which provides a basis for further in vivo research.

[11] = system: MCF-7 cells; assay: MTT antiproliferative assay, MCF-7; type: cell-based; details: Homo sapiens, MCF7; MTT, 72 h, MCF-7 cells; read-out: IC50 MCF-7
Method: as §4

[12] = target: c-Met kinase (Homo sapiens, UniProt P08581); assay: c-Met kinase inhibition assay; type: biochemical
Chain of c-Met kinase (P08581 25-1390): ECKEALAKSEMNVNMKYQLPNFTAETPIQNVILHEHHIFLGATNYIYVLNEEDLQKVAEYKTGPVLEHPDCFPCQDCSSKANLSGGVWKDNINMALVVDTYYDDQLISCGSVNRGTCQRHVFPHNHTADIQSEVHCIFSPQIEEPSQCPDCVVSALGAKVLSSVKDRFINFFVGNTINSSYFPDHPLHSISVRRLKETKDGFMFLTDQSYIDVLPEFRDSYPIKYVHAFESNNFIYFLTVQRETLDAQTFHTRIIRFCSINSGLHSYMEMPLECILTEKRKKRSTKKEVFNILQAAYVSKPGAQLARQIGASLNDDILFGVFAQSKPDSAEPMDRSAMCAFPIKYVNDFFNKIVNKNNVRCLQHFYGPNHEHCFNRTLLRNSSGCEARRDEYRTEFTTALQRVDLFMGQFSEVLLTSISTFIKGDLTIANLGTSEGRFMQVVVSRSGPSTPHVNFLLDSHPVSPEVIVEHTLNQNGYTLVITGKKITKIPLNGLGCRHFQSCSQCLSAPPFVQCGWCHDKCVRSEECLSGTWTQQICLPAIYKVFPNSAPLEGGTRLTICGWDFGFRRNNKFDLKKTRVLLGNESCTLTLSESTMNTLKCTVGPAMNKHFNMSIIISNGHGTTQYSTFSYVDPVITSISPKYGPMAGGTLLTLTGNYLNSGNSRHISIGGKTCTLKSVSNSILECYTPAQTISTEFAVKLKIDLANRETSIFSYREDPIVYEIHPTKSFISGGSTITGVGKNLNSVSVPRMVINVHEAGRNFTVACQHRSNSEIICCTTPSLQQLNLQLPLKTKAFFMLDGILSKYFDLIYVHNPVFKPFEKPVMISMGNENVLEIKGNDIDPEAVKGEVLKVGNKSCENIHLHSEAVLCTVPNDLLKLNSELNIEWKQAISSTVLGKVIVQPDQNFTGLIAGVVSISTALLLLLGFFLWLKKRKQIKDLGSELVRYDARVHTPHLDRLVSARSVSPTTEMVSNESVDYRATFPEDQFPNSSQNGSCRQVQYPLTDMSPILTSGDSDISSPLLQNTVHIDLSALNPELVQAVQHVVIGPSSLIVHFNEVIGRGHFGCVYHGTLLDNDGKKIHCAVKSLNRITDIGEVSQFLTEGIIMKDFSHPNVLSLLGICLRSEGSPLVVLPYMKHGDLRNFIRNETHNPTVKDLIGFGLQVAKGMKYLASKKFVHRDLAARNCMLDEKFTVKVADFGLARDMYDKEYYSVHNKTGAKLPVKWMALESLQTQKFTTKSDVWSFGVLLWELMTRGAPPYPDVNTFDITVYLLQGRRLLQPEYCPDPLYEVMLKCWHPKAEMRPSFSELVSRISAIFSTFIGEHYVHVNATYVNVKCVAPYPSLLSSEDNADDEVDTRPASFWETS

[13] = system: H1975 cells; assay: Antiproliferative activity, H1975; type: cell-based; details: Homo sapiens, NCI-H1975
Method: as §4

[14] = system: Hela cells; assay: MTT antiproliferative assay, Hela; type: cell-based; details: Homo sapiens; MTT, 72 h, Hela cells; read-out: IC50 Hela
Method: as §4

[15] = system: H460 cells; assay: Antiproliferative activity, H460; type: cell-based; details: Homo sapiens, NCI-H460
Method: as §4

Chain of VEGFR-2 (P35968 20-1356): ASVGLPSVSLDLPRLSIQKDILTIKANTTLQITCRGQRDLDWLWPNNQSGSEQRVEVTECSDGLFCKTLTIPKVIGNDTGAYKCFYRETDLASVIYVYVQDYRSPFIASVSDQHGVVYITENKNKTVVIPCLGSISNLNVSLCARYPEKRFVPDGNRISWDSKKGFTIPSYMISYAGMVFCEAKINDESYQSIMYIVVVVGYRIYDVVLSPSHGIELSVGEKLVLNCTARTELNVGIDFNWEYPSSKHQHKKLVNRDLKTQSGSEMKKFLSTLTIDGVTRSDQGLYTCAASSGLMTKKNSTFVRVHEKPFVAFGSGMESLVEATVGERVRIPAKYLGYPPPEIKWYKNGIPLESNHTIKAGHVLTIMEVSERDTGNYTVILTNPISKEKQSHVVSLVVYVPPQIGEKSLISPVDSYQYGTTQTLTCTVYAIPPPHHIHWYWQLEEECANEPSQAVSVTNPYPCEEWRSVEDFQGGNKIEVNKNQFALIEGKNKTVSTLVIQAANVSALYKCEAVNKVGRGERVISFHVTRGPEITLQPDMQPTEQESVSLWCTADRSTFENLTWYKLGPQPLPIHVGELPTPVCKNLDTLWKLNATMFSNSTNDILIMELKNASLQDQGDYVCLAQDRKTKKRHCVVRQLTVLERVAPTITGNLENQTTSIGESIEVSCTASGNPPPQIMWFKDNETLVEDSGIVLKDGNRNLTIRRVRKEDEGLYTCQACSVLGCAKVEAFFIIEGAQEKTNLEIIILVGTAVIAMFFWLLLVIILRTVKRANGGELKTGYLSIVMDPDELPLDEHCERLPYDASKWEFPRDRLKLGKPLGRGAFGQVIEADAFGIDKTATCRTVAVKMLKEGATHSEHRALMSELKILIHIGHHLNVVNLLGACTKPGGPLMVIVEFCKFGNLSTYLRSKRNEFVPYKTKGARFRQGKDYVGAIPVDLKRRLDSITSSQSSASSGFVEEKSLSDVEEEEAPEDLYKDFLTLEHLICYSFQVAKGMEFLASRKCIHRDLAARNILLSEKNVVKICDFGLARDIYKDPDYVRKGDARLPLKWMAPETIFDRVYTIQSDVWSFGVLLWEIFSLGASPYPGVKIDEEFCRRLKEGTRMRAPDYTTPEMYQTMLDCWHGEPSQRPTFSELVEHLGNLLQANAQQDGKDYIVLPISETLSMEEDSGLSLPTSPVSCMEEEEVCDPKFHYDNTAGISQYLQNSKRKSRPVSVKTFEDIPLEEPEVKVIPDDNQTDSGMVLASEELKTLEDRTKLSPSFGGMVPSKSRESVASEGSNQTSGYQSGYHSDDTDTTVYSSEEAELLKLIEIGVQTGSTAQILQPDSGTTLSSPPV

Question: What does the source list for Cc1nnc2c(Oc3ccc(NC(=O)c4cnn(-c5ccc(Cl)cc5)c4C(F)(F)F)cc3F)nccn12 [17l]?
Answer: IC50 [1]: 2600 nM; Q1-LR ([2]; A549, 0.25 μM): 2.15%; Q1-UL ([2]; A549, 0.25 μM): 4.27%; Q1-UR ([2]; A549, 0.25 μM): 2.71%; total apoptosis rate ([2]; A549, 0.25 μM): 4.86%; Q1-LL ([2]; A549, 0.25 μM): 90.88%; Q1-LR ([2]; A549, 0.50 μM): 3.07%; Q1-UL ([2]; A549, 0.50 μM): 1.53%; Q1-UR ([2]; A549, 0.50 μM): 3.38%; total apoptosis rate ([2]; A549, 0.50 μM): 6.45%; Q1-LL ([2]; A549, 0.50 μM): 92.02%; Q1-LR ([2]; A549, 1.00 μM): 5.52%; Q1-UL ([2]; A549, 1.00 μM): 0.30%; Q1-UR ([2]; A549, 1.00 μM): 6.09%; total apoptosis rate ([2]; A549, 1.00 μM): 11.61%; Q1-LL ([2]; A549, 1.00 μM): 88.09%; inhibitory effect on p-VEGFR-2 (Tyr1059) [3]: not obvious; IC50 [4]: 38200 ± 1580 nM; protein levels of p-c-Met (Tyr1003) [5]: inhibited; IC50 [6]: 980 ± 80 nM; cell block rate in G0/G1 phase [7]: 76.14%; phosphorylation protein of downstream signals ERK1/2 and AKT [8]: significantly inhibited; IC50 [9]: > 10000 nM; hemolytic rate [10]: less than 5%; IC50 [11]: 1050 ± 170 nM; IC50 [12]: 26 nM; IC50 [13]: 15300 ± 1180 nM; IC50 [14]: 1280 ± 250 nM; IC50 [15]: 5860 ± 770 nM
